Assay results from patent EP0134485A2, “5-Cyclopropyl-5,8-dihydro-8-oxo-1,3-dioxolo-(4,5-g) quinoline-7-carboxylic acid, process for its preparation and bactericidal agent containing it” (BAYER AG, priority 1983, dated 1985).
Values after ≈ are worked out from the molar mass of the structure shown.

Key:
Assay in all cases: Agar dilution test (MIC), Isosensitest medium
Type in all cases: cell-based
E. coli 455/7 = conditions: Escherichia coli, strain E. coli 455/7, Denley multipoint inoculator, read-out: MHK
From the text: (§1) In der nachstehenden Tabelle sind die MHK-Werte der erfindungsgemäßen Verbindung angegeben.

Proteus mir. 8223 = conditions: strain Proteus mir. 8223, Denley multipoint inoculator, read-out: MHK
From the text: as §1

Streptococc. faec. 9790 = conditions: strain Streptococc. faec. 9790, Denley multipoint inoculator, read-out: MHK
From the text: as §1

Serratia 16040 = conditions: strain Serratia 16040, Denley multipoint inoculator, read-out: MHK
From the text: as §1

Klebsiella 6179 = conditions: strain Klebsiella 6179, Denley multipoint inoculator, read-out: MHK
From the text: as §1

Staph. aur. 133 = conditions: strain Staph. aur. 133, Denley multipoint inoculator, read-out: MHK
From the text: as §1

Proteus 8175 = conditions: strain Proteus 8175, Denley multipoint inoculator, read-out: MHK
From the text: as §1

Pseudom. W. = conditions: strain Pseudom. W., Denley multipoint inoculator, read-out: MHK
From the text: as §1

O=C(O)c1cn(C2CC2)c2cc3c(cc2c1=O)OCO3 [I, 5-Cyclopropyl-5,8-dihydro-8-oxo-1,3-dioxolo[4,5-g]chinolin-7-carbonsäure]
MIC (E. coli 455/7): 16 µg/mL (≈ 58.6 µM)
MIC (Proteus mir. 8223): 8 µg/mL (≈ 29.3 µM)
MIC (Streptococc. faec. 9790): 8 µg/mL (≈ 29.3 µM)
MIC (Serratia 16040): 4 µg/mL (≈ 14.6 µM)
MIC (Klebsiella 6179): 0.06 µg/mL (≈ 0.22 µM)
MIC (Staph. aur. 133): 0.25 µg/mL (≈ 0.915 µM)
MIC (Proteus 8175): 0.03 µg/mL (≈ 0.11 µM)
MIC (Pseudom. W.): 4 µg/mL (≈ 14.6 µM)
